The values that follow come from PMC8125234, “Cardiolipin Stabilizes and Increases Catalytic Efficiency of Carnitine Palmitoyltransferase II and Its Variants S113L, P50H, and Y479F” (International Journal of Molecular Sciences, 2021).

Changes are numbered by the printed parent chain.

For assay [1], the system named is recombinant human CPT II WT. Also on record: method as in PMID 13534673. To be noted: cited from earlier work.
Assay [2] deals with T1, CPT II WT (Homo sapiens, UniProt P23786).
T1 construct: made in house; host or cells: Escherichia coli BL21Gold DE
T1 sequence (P23786 26-658): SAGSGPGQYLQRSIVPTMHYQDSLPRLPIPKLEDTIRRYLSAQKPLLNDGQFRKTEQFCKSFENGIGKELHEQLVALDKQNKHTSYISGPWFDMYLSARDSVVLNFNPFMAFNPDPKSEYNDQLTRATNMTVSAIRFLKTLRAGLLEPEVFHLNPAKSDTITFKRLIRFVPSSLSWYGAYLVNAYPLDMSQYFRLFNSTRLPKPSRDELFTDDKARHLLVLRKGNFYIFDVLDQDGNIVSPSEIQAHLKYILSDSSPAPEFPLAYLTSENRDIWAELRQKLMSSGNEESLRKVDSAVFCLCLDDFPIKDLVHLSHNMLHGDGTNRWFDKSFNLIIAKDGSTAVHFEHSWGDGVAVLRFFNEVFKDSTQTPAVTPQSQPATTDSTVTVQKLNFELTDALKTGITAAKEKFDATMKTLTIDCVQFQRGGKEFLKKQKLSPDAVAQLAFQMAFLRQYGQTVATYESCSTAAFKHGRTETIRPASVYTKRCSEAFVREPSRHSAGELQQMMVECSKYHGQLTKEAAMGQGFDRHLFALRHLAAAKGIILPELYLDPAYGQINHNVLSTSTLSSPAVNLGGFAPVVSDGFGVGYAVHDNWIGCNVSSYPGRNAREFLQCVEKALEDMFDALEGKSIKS
Put plainly: Influence of CL on the enzyme activity. It counts as biochemical. To be noted: for Maximal Enzymatic Activity: w/o CL = 100. On the procedure: (§1) Then, the effect of CL, as a potential stabilizing agent, was investigated in the activity assay. Therefore, 0.1 mg/mL recombinant enzyme was incubated with various concentrations of CL (0.125, 0.25 or 0.5 mM) or buffer at 30 and 42 °C, respectively.
(§2) Before activity measurements, the storage buffer of the enzymes was replaced with assay buffer (50 mM KH2PO4, 120 mM KCl, 1 mM EDTA-Na4) using vivaspin turbo 4 tubes (Satorius Stedim biotech GmbH, Göttingen, Germany) at 4 °C. The pH of assay buffer was adjusted with KOH to 7.4. The storage buffer was diluted at least 1:500 in assay buffer. In addition, before each experimental set up, the protein samples were centrifuged at 16,000× g for 5 min at 4 °C to remove any micro-aggregates. After that, the protein concentration was determined using bicinchoninic acid (BCA) protein assay kit (Thermo Fisher Scientific GmbH, Berlin, Germany). The enzyme activity of recombinant CPT II was performed following Rufer et al. with modifications described elsewhere. […] After pre-conditioning the mixture to 25 °C for 2 min, the reaction was started by adding 15 nM of recombinant enzyme. The reverse reaction of CPT II was detected with the enzyme activity assay. CPT II catalyzed the transfer of fatty acid residue from Pal-CoA to L-carnitine with release of CoA and Pal-carnitine. The released CoA was then detected by the reaction of the free thiol group with DTNB, forming 5-mercapto-(2-nitrobenzoic acid). This compound has a molar extinction coefficient of 13,600 M^−1 cm^−1 at a wavelength of 410 nm, and its formation was followed spectroscopically. […] The slope of the progress curve was used to determine the reaction velocity.
(§3) The purified enzymes were incubated at different temperatures (30, 37, 40 and 42 °C) using a protein concentration of 1 mg/mL during the incubation periods to investigated the half-lives of WT and variants. 0.1 mg/mL enzyme was incubated with or without CL (0.125, 0.25 and 0.5 mM) in the assay buffer. The enzyme activities were determined by adding 15 nM of pre-incubated enzyme according to Section 4.3 after various incubation times up to 60 min at an assay temperature of 25 °C. Experiments were done at least three times independently as double determination.

Assay [3] has as its target T2, CPT II variant S113L (Homo sapiens, UniProt P23786, S113L).
T2 construct: made in house; host or cells: Escherichia coli BL21Gold DE
T2 sequence (P23786 26-658 S113L): T1 sequence (P23786 26-658) with S88L
Put plainly: Influence of CL on the enzyme activity. To be noted: for Maximal Enzymatic Activity: w/o CL = 100. The assay is classed as biochemical. The protocol: as §1, §2, §3

In assay [4] the target is T1, CPT II WT. As to the kind of experiment: nanoDSF protein stability in presence of CL or β-OG. The assay is classed as binding. On the procedure: (§4) NanoDSF is a standard method for the investigation of the folding/unfolding of proteins and the interaction of proteins with effectors/ligands/substrates
(§5) The protein stability was investigated applying nano differential scanning fluorimetry (nanoDSF) using a protein concentration of 1 mg/mL in assay buffer. […] The heating rate has been set to 1 °C per min. A heating ramp from 15 to 95 °C was determined. The nanoDSF data were obtained using a Prometheus NT.48 device. First derivatives were calculated using PR.ThermControl software (NanoTemper Technologies GmbH, Munich, Germany). Experiments were performed at least three times independently as double determination.

Assay [5] addresses T2, CPT II variant S113L. Described as above. It counts as binding. The protocol: as §4, §5
Setting [6] is: reference TM of WT in buffer (ΔTM = 0 °C).

With Cardiolipin [CL], the “Effect of CL on enzyme activity” value in assay [1] was “activity-increasing effect”. Also, the “Increase of the enzymatic activity by CL” value on CPT II WT [2] was 1.5 fold; on CPT II variant S113L [3], “marginal effect”. Moreover, the “Maximal Enzymatic Activity” value on CPT II WT [2] (0.25 mM CL) is reported as 152.3 ± 5.5%; on CPT II WT [2] (0.5 mM CL) it was 135.9 ± 4.7%; on CPT II variant S113L [3] (0.25 mM CL), 114.5 ± 8.3%; on CPT II variant S113L [3] (0.5 mM CL), 98.7 ± 5.1%. Moreover, the “Enzymatic activity in the presence of CL” value on CPT II WT [2] (0.25 and 0.5 mM CL, before incubation periods) is on record as “up to 150%”; on CPT II variant S113L [3] (before incubation periods), 115%. The “Increase of ΔTM-value due to the addition of CL” value on CPT II WT [4] (0.25 mM CL) and at CPT II variant S113L [5] (0.25 mM CL) was “+10 °C” throughout. Further, the “TM in Buffer with 0.25 mM CL” value on CPT II WT [4] (1 mg/mL protein) was 47.6 °C. For the same substance, the “∆TM in Buffer with 0.25 mM CL” value on CPT II WT [4] (setting [6]) is 10.6 °C; on CPT II variant S113L [5] (setting [6]), 6.5 ± 0.2 °C.
